Test [1] has as its system colchicine site on tubulin (porcine brain tubulin). Description: Colchicine displacement assay, fluorometric detection. In kind it is binding. As to conditions: compound 20 μM, colchicine 2 μM, porcine brain tubulin 2 μM, 2 h; control = colchicine bound to tubulin. How it is done:
To study whether the compounds bind to the colchicine site on tubulin, a colchicine displacement assay using fluorometric detection was performed as previously described (Bhattacharyya B. et al.; Proc Natl Acad Sci USA 1974, 71:2627-31; Risinger A L. et al.; J Pharmacol Exp Ther 2011; 336:652-60). Porcine brain tubulin at 2 μM (Cytoskeleton) in a buffer consisting of 80 mM PIPES, 2 mM MgCl2, 0.5 mM EGTA at pH 7.0 with addition of 1 mM GTP, was incubated alone, with 2 μM colchicine or with 2 μM colchicine in the presence of test compounds or reference compound combretastatin A4 at 20 μM for 2 h in a black half-area 96-well plate (Corning Inc, Corning, N.Y., USA). Thereafter, the fluorescence was measured using a FLUOStar Optima (BMG Labtech) at an excitation of 380 nm and emission of 440 nm. The results are presented as percent of control i.e. colchicine bound to tubulin.

The test system of test [2] is acute lymphoblastic leukemia cell line CCRF-CEM. Description: Fluorometric Microculture Cytotoxicity Assay (FMCA) in CCRF-CEM cells. In kind it is cell-based. As to conditions: Homo sapiens, FMCA after 72 h. From the text: (§1) The Fluorometric Microculture Cytotoxicity Assay, FMCA (Larsson, R., et al.; Anticancer Res, 1989, 9, 1111-1119), is a three day non-clonogenic microplate-based cell viability assay used for measurement of the cytotoxic and/or cytostatic effect of compounds in vitro (Lindhagen, E. et al.; Nat. Protoc., 2008, 3, 1364-1369). FMCA represents a valuable method to measure cytotoxicity in a number of cell types, both cell lines and primary cells from patients (Larsson, R., et al.; Int. J. Cancer, 1992, 50, 177-185; Fridborg, H., et al.; Eur. J. Cancer, 1999. 35, 424-432; Dhar, S., et al.; Br. J. Cancer, 1996, 74, 888-896).
(§2) FMCA is based on the principle that fluorescein diacetate (FDA) is converted to the fluorescent probe fluorescein by esterases […]. For experiments, 96-well microplates are prepared with compounds and stored at −20° C. or −70° C. until use. Cells are then seeded into the drug-prepared plates and placed in an incubator for 72 h. On the last day of incubation, the plates are washed and a buffer containing FDA is added and incubated with the cells for 45 minutes. Finally the fluorescence per well is measured in a fluorometer and a Survival Index % (SI) for each compound-treated well is calculated with the equation: Compound-treated cells minus blank divided by control cells minus blank. A high SI-value indicates a large percentage of living cells and vice versa.
For experiments with compounds of the invention, 96-well plates were prepared as follows:
Compounds were dissolved in DMSO to 10 mM and stored at −20° C. The test compounds were thawed, protected from light, mixed, and 3 μl stock solution was added to test tubes containing 297 μl culture medium RPMI-1640, to give the concentration 100 μM. Then, compounds were serially diluted to concentrations ten times higher than the desired test concentrations. Finally, 20 μl of each compound solution was added in duplicates to wells in two V-bottomed 96-well plates. The plates were stored at −20° C. until use.
On the day of cell seeding, 180 μl of cell suspension was added to each well in the two assay plates. The final concentrations of compounds tested were 10 μM, 1 μM, 0.1 μM and 0.01 μM. The experiment was performed twice.
In subsequent experiments, compounds were tested, along with a number of approved cancer drugs (dasatinib and pazopanib) as described above. The acute lymphoblastic leukemia cell line CCRF-CEM was used throughout. In the assay plates, medium was added to eight empty wells (blank wells) and wells filled with cell suspension served as control wells. SI-values were then calculated for each compound-treated well as described above. All experiments were conducted twice and a new batch of plates was prepared for each experiment.
(§3) To obtain EC50-values, plates were prepared with compounds serially diluted in culture media to suitable concentration ranges for each compound. Thereafter cells were added at a density of 10 000 cells per well and FMCA was performed after 72 h. Data analysis was performed using GraphPadPrism software, where SI values for each concentration were plotted on a log scale and processed with non-linear regression and a standard sigmoidal dose-response model.

The next test deals with A2780 (ovarian cancer). Description: FMCA cell viability in ovarian cancer cell line A2780. The class given is cell-based. Conditions: Homo sapiens; A2780 ovarian cancer cells.
From the text: as §1, §2, §3
(§4) The compounds of the invention were also tested on further cancer cell lines related to ovarian cancer (A2780; see e.g. Hamilton, T. et al.; Semin. Oncol., 1984, 11, 285-298) and multidrug-resistant ovarian cancer (A2780/Adr). The known microtubule interfering agents vincristine and paclitaxel were included as references in the resistant and non-resistant ovarian cancer cell lines.

The subject of test [3] is A2780/Adr (multidrug-resistant ovarian cancer). The test can be described thus: FMCA cell viability in multidrug-resistant ovarian cancer cell line A2780/Adr. The class given is cell-based. Conditions: A2780/Adr multidrug-resistant ovarian cancer cells.
From the text: as §1, §2, §3, §4

The subject of a further test is bovine tubulin protein. The test can be described thus: Tubulin polymerization assay kit (Cytoskeleton Inc), fluorescence. Conditions: for inhibitory effects on tubulin polymerization (in words): cell-free, 1, 3 and 10 μM; for IC50: cell-free, example compounds at 1, 3 and 10 μM, controls at 3 μM, 60 min, read-out: Inhibition of tubulin polymerization IC50. The class given is biochemical. Here is the method: Example compounds were further tested in a tubulin polymerization assay kit from Cytoskeleton Inc (Denver, Colo., USA). Polymerization is followed by fluorescence enhancement due to the incorporation of a fluorescent reporter into microtubules as polymerization occurs. Vincristine and paclitaxel at 3 μM were used as positive controls for tubulin polymerization inhibition and stabilisation, respectively. All compounds were dissolved in DMSO, which was used as solvent control. For experiments, example compounds (1, 3, and 10 μM) and control compounds (3 μM) were incubated with bovine tubulin protein in a cell-free environment and the fluorescence was then measured in a fluorometer (Fluostar Optima, BMG Labtech, Offenburg, Germany) at 360/450 nm every minute for a total of 60 mins.

What is called EC50 is the concentration that produces a half-maximal response. Low values mean higher potency in that assay, high ones lower potency in that assay. The term IC50 denotes the concentration that inhibits the measured activity by half.

In the case of `COc1ccc(/C=C\c2cc(OC)c(OC)c(OC)c2)cc1O` [Combretastatin A4, combretastatin A4, reference compound], the “Colchicine-tubulin binding Percent of control” value in test [1] was 66% of control.

For the molecule `CCOc1ccc2[nH]cc(CCNc3nccc(Nc4ccc5c(c4)nc(C)n5C)n3)c2c1` [Example 1, N^4-(1 2-dimethyl-1H-benzo[d]imidazol-5-yl)-N^2-[2-(5-ethoxy-1H-indol-3-yl)ethyl]pyrimidine-2,4-diamine], the concentration giving a half-maximal response (EC50) in test [2] turned out to be 12 nM; in the test with A2780 (ovarian cancer), 17 nM; in test [3], 380 nM. For the same molecule, the “inhibitory effects on tubulin polymerization (in words)” value (“inhibitory effects” for short) in the test with bovine tubulin protein was “showed inhibitory effects on tubulin polymerization”. For the same molecule, in the test with bovine tubulin protein, the half-maximal inhibitory concentration (IC50) lay in the range of 1000 to 3000 nM. The “Colchicine-tubulin binding Percent of control” value in test [1] is 95% of control.

`COc1ccc2[nH]cc(CCNc3nccc(Nc4cccc5c4ncn5C)n3)c2c1` [Example 2, N^2-[2-(5-methoxy-1H-indol-3-yl)ethyl]-N^4-(1-methylbenzimidazol-4-yl)pyrimidine-2,4-diamine]: the EC50 stood at 9.7 nM in test [2], 3.3 nM with A2780 (ovarian cancer) and 17 nM in test [3]. In the test on bovine tubulin protein, the “inhibitory effects” value is recorded as “showed inhibitory effects on tubulin polymerization”. In the test with bovine tubulin protein, the IC50 is 1000 to 3000 nM. Moreover, the “Colchicine-tubulin binding Percent of control” value in test [1] is recorded as 81% of control.

As for `CCOc1ccc2[nH]cc(CCNc3nccc(Nc4cccc5c4ncn5C)n3)c2c1` [Example 3, N^2-[2-(5-ethoxy-1H-indol-3-yl)ethyl]-N^4-(1-methylbenzimidazol-4-yl)pyrimidine-2,4-diamine], the results for the EC50 (in test [2]; in the test with A2780 (ovarian cancer); in test [3]) were 5.6 nM, 9.2 nM and 24 nM, respectively.

In the case of `CCOc1ccc2[nH]cc(CCNc3nc(C)cc(Nc4ccc5[nH]ccc5c4)n3)c2c1` [Example 4, N^2-[2-(5-ethoxy-1H-indol-3-yl)ethyl]-N^4-(1H-indol-5-yl)-6-methyl-pyrimidine-2,4-diamine], the concentration giving a half-maximal response (EC50) in test [2] was 800 nM; in the test with A2780 (ovarian cancer) it was 950 nM; in test [3], 930 nM. Further, the half-maximal inhibitory concentration (IC50) with bovine tubulin protein is above 10000 nM.

On to `COc1ccc2[nH]cc(CCNc3nc(C)cc(Nc4ccc5cc(C)[nH]c5c4)n3)c2c1` [Example 5, N^2-[2-(5-methoxy-1H-indol-3-yl)ethyl]-6-methyl-N^4-(2-methyl-1H-indol-6-yl)pyrimidine-2,4-diamine], for which the EC50 in test [2] was 100 nM; in the test on A2780 (ovarian cancer) it was 130 nM; in test [3], 400 nM. Also, in the test on bovine tubulin protein, the “inhibitory effects” value is recorded as “showed inhibitory effects on tubulin polymerization”. In addition, the IC50 in the test with bovine tubulin protein lay in the range of 3000 to 10000 nM.

Regarding `CCOc1ccc2[nH]cc(CCNc3nc(C)cc(Nc4ccc5cc(C)[nH]c5c4)n3)c2c1` [Example 6], the results for the concentration giving a half-maximal response (EC50) (in test [2]; in the test on A2780 (ovarian cancer); in test [3]) were 69 nM, 170 nM and 450 nM, respectively.

Turning to `COc1ccc2[nH]cc(CCNc3nc(C)cc(Nc4cccc5c4ccn5C)n3)c2c1` [Example 7, N^2-[2-(5-methoxy-1H-indol-3-yl)ethyl]-6-methyl-N^4-(1-methylindol-4-yl)pyrimidine-2,4-diamine], the EC50 in test [2] was 32 nM; with A2780 (ovarian cancer), 12 nM; in test [3], 53 nM.

As for `CCOc1ccc2[nH]cc(CCNc3nc(C)cc(Nc4cccc5c4ccn5C)n3)c2c1` [Example 8, N^2-[2-(5-ethoxy-1H-indol-3-yl)ethyl]-6-methyl-N^4-(1-methylindol-4-yl)pyrimidine-2,4-diamine], the EC50 was 110 nM in test [2], 48 nM with A2780 (ovarian cancer) and 130 nM in test [3]. Also, the “inhibitory effects” value in the test on bovine tubulin protein is reported as “showed inhibitory effects on tubulin polymerization”. The IC50 in the test with bovine tubulin protein was around 3000 nM. In test [1], the “Colchicine-tubulin binding Percent of control” value is 82% of control.

In the case of `CC(=O)O[C@H]1C(=O)[C@@]2(C)[C@H]([C@H](OC(=O)c3ccccc3)[C@]3(O)C[C@H](OC(=O)[C@H](O)[C@@H](NC(=O)c4ccccc4)c4ccccc4)C(C)=C1C3(C)C)[C@]1(OC(C)=O)CO[C@@H]1C[C@@H]2O` [Paclitaxel, paclitaxel, reference compound], the 50% effective concentration (EC50) in the test on A2780 (ovarian cancer) was 0.26 nM; in test [3], 810 nM.

In the case of `Cc1nc(Nc2ncc(C(=O)Nc3c(C)cccc3Cl)s2)cc(N2CCN(CCO)CC2)n1` [Ref. 1, dasatinib, reference compound], in test [2], the concentration giving a half-maximal response (EC50) was 9700 nM.

In the case of `Cc1ccc(Nc2nccc(N(C)c3ccc4c(C)n(C)nc4c3)n2)cc1S(N)(=O)=O` [Ref. 2, pazopanib, reference compound], the 50% effective concentration (EC50) in test [2] was 25900 nM.

On to `CC[C@]1(O)C[C@H]2CN(CCc3c([nH]c4ccccc34)[C@@](C(=O)OC)(c3cc4c(cc3OC)N(C=O)[C@H]3[C@@](O)(C(=O)OC)[C@H](OC(C)=O)[C@]5(CC)C=CCN6CC[C@]43[C@@H]65)C2)C1` [Vincristine, vincristine, reference compound], for which the values for the EC50 (in the test on A2780 (ovarian cancer); in test [3]) were 0.22 nM and 210 nM, respectively. In addition, in the test with bovine tubulin protein, the IC50 is below 3000 nM.

The values above are taken from patent publication US20150252026A1, “4-(INDOLYL OR BENZIMIDAZOLYL)AMINO-2-(2-(INDOL-3-YL)ETHYL)AMINOPYRIMIDINES USEFUL FOR THE TREATMENT OF CANCER” (NOVIGA RESEARCH AB, priority 2012, published 2015).
